# Experimental data from US7855233B2 (Teva Pharmaceutical Industries, Ltd., priority 2009, dated 2010).
# Where a name gives a salt, the structure may show the parent alone. Read-outs that look alike come from different tables or passages of the source.
# Tests used:
# [1] = from references, cited from earlier work
# [2] = Free rasagiline base in citrate salt preparations (toluene extraction, TLC, pH); settings: for Content of extractable base (toluene) % on total base content: by ratio base to acid mole:mole
# [3] = Storage of citrate salts in sealed glass vials in refrigerator; format: physicochemical; settings: 7±2° C., sealed vial
# Description: (§1) The changes were observed and recorded.
# [4] = Aqueous salt solutions held at +5° C.; format: physicochemical; settings: 15 hrs at +5° C.
# Procedure: 3.02 g of Citric acid was dissolved in 4 ml deionized water. […] Exothermic effect was observed (temperature rose from 22 to 25° C.), and most of the solid was dissolved. Then the mixture was heated to 42° and complete dissolution of the solid was observed. The resulting clear viscous syrup-like solution was held in refrigerator at +5° C. overnight.
# 3.45 g of Citric acid was dissolved in 5 ml deionized water and pre-heated to 30° C. […] Exothermic effect was observed (temperature rose from 30 to 36° C.), and the solid was dissolved. The resulted clear viscous syrup-like solution was held in refrigerator at +5° C. overnight.
# 3.46 g of Citric acid was dissolved in 5 ml deionized water. […] Exothermic effect was observed (temperature rose from 22 to 27° C.), and most of the solid was dissolved. Then the mixture was heated to 46° C. 0.5 ml water was added and complete dissolution of the solid was observed. The resulting clear viscous syrup-like solution was held in refrigerator at +5° C. overnight.
# [5] = Exposure of citrate salts to atmospheric air in open dishes at ambient temperature; format: physicochemical; settings: for Changes on exposure to atmosphere (appearance): ambient temperature, open dish
# Description: as §1
# [6] = Aqueous / water solubility; settings: aqueous citric acid reaction solution
# [7] = biological target: B-form of the enzyme monoamine oxidase (“MAO-B”) (Homo sapiens, UniProt P27338); settings: reported in prior patents; cited from earlier work
# B-form of the enzyme monoamine oxidase (“MAO-B”), sequence (P27338 whole entry, species assumed): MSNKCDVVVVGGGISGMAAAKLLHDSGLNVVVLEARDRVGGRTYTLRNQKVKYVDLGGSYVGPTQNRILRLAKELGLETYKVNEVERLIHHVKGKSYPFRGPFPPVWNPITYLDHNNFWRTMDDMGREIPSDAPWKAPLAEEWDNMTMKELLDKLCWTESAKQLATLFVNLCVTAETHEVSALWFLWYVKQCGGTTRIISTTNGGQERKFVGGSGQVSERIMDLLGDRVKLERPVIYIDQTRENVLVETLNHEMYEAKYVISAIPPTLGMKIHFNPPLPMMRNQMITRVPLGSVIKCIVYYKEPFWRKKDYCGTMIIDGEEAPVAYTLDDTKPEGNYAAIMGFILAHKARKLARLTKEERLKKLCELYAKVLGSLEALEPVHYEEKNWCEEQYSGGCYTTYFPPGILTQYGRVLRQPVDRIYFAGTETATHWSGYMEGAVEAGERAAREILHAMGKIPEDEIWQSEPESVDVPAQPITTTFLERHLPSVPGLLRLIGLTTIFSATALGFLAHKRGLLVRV
# physchem = settings: water
# [8] = cited from earlier work
compound,measurement,setting,value
Cl [Chloride],Hygroscopicity by KF,[1]; Table 8c,Not hygroscopic
"O=C(O)CC(O)(CC(=O)O)C(=O)O [Citric Acid, Citric acid]",Hygroscopicity by KF,[1]; Table 8b,low
"C#CCNC1CCc2ccccc21.C#CCNC1CCc2ccccc21.O=C(O)CC(O)(CC(=O)O)C(=O)O (stereo not drawn) [Di-citrate, di-rasagiline citrate]",Content of extractable base (toluene) % on total base content,[2],22.0%
C#CCN[C@@H]1CCc2ccccc21.C#CCN[C@@H]1CCc2ccccc21.O=S(=O)(O)CCS(=O)(=O)O [Edisilate],Hygroscopicity by KF,[1]; Table 8c,Not hygroscopic
C#CCN[C@@H]1CCc2ccccc21.O=C(O)CC(O)(CC(=O)O)C(=O)O [Example 4b],Appearance stored in refrigerator,[3]; 0 month,White powder
same,Appearance stored in refrigerator,[3]; 3 months,White powder
same,Appearance stored in refrigerator,[3]; 6 months,White powder
same,precipitation from solution,[4],No precipitation
same,Changes on exposure to atmosphere (appearance),[5]; 0:00 hrs:min,Powder
same,Changes on exposure to atmosphere (appearance),[5]; 1:50-2:00 hrs:min,Semi-solid
same,Changes on exposure to atmosphere (appearance),[5]; 6:00 hrs:min,Syrup
same,Changes on exposure to atmosphere (appearance),[5]; 7:00 hrs:min,Syrup
C#CCN[C@@H]1CCc2ccccc21.C#CCN[C@@H]1CCc2ccccc21.O=C(O)CC(O)(CC(=O)O)C(=O)O [Example 4c],Appearance stored in refrigerator,[3]; 0 month,White powder
same,Appearance stored in refrigerator,[3]; 3 months,White powder
same,Appearance stored in refrigerator,[3]; 6 months,White powder
same,precipitation from solution,[4],No precipitation
same,Changes on exposure to atmosphere (appearance),[5]; 0:00 hrs:min,Powder
same,Changes on exposure to atmosphere (appearance),[5]; 0:50-1:00 hrs:min,Powder
same,Changes on exposure to atmosphere (appearance),[5]; 0:30 hrs:min,Powder
same,Changes on exposure to atmosphere (appearance),[5]; 1:50-2:00 hrs:min,Powder
same,Changes on exposure to atmosphere (appearance),[5]; 5:00 hrs:min,Lump powder
C#CCN[C@@H]1CCc2ccccc21.C#CCN[C@@H]1CCc2ccccc21.C#CCN[C@@H]1CCc2ccccc21.O=C(O)CC(O)(CC(=O)O)C(=O)O [Example 4d],Appearance stored in refrigerator,[3]; 0 month,White powder
same,Appearance stored in refrigerator,[3]; 3 months,White powder
same,Appearance stored in refrigerator,[3]; 6 months,White powder
same,precipitation from solution,[4],No precipitation
same,Changes on exposure to atmosphere (appearance),[5]; 0:00 hrs:min,Powder
same,Changes on exposure to atmosphere (appearance),[5]; 0:30 hrs:min,Powder
same,Changes on exposure to atmosphere (appearance),[5]; 5:00 hrs:min,Semi-solid
same,Changes on exposure to atmosphere (appearance),[5]; 6:00 hrs:min,Semi-solid
C#CCN[C@@H]1CCc2ccccc21.O=C(O)CC(O)(CC(=O)O)C(=O)O [Example 5.1],Extracted R-PAI (%),"[2]; free base extracted with toluene, solvent and citric acid:base mole proportions per example",0.06 g-1.75%
"C#CCN[C@@H]1CCc2ccccc21 [Mesylate, Rasagiline mesylate]",Hygroscopicity by KF,[1]; Table 8c,Not hygroscopic
"C#CCN[C@@H]1CCc2ccccc21.O=C(O)CC(O)(CC(=O)O)C(=O)O [Mono-citrate, mono-rasagiline citrate]",Content of extractable base (toluene) % on total base content,[2],1.75-3.6%
"C#CCN[C@@H]1CCc2ccccc21 [Rasagiline, R(+)-N-propargyl-1-aminoindan]",Hygroscopicity by KF,[1]; Table 8b,Not hygroscopic
same,dissolves in aqueous reaction solution,[6],more than 10 wt %
same,inhibition of MAO-B,[7],selective inhibitor
same,solubility,physchem,~2000 µg/mL
"C#CCNC1CCc2ccccc21.C#CCNC1CCc2ccccc21.C#CCNC1CCc2ccccc21.O=C(O)CC(O)(CC(=O)O)C(=O)O (stereo not drawn) [Tri-citrate, tri-rasagiline citrate]",Content of extractable base (toluene) % on total base content,[2],42.7%
Oxalate,Hygroscopicity by KF,[1]; Table 8c,Not hygroscopic
Tosylate,Water solubility,"[8]; Table 8c, from references",60000 to 70000 µg/mL
rasagiline citrate,hygroscopicity (in words),[5]; exposed to air/humidity at ambient temperature,highest hygroscopicity
rasagiline maleate,Water solubility (mg/ml),"[8]; Table 8c, from references",>=1000 mg/ml
same,solubility,"[8]; as described in U.S. Pat. No. 6,630,514",not less than 1000 mg/ml water
